Where two headings read alike, the source gives them in different places.
Key:
[1] = target: T1, PARP2 (Homo sapiens, UniProt Q9UGN5); experiment: biochemical; assay type: biochemical
T1 construct: made in house
Procedure: All starting materials, reagents, and solvents were purchased from common commercial suppliers and were used as such without further purification. […] Organic solutions were dried over anhydrous Na2SO4 and concentrated with rotary evaporator at low pressure. All the reactions were routinely checked by thin-layer chromatography (TLC) on silica gel 60F254 (Merck) and visualized by using UV and iodine. Flash chromatography separations were carried out on Merck silica gel 60 (mesh 230-400) or by using automated Buchi Reveleris X2-UV with column FP Ecoflex Si 12 g. Yields were of purified products and were not optimized. ^1HNMR spectra were recorded at 400 MHz (Bruker Avance DRX-400), while ^13CNMR spectra were recorded at 101 MHz (Bruker Avance DRX-400). Chemical shifts are given in ppm (δ) relative to TMS. […] Mating constant (J) are reported in Hz. The purity of the tested compounds was evaluated by HPLC analysis using Jasco LC-4000 instrument equipped with a UV-Visible Diode Array Jasco-MD4015 (Jasco Corporation, Tokyo, Japan), and XTerra MS C18 column, 5 μm×4.6 mm×150 mm (Waters Corporation, Massachusetts, USA). Chromatograms were analyzed by ChromNAV2.0 Chromatography Data System software. […] The peak retention time (ret. time) is given in minutes. […] 1-Isobutoxy-4-methoxy-2-nitrobenzene (113). Isobutyl alcohol (0.6 mL, 6.43 mmol) was added, under nitrogen atmosphere at 0° C., to a suspension of NaH (0.26 g, 6.43 mmol) in dry DMF. After 15 minutes, 1-fluoro-4-methoxy-2-nitrobenzene 112 (1 g, 5.84 mmol) was also added and the reaction mixture was stirred at 80° C. for 4 h. […] (2-Isobutoxy-5-methoxyphenyl)amine (114). Zn (1.57 g, 24 mmol) and NH4C1 (2.45 g, 40 mmol) were added to a solution of 113 (0.46 g, 2 mmol) in acetone/H2O (50 mL, ratio 5:1). The reaction mixture was stirred at 60° C. for 3 h and, then, it was filtered over celite. […] N-(2,5-diethoxyphenyl)thiourea (55). […] N-(2-isobutoxy-5-methoxyphenyl)thiourea (115). […] A solution of Br2 (0.2 mL, 3.3 mmol) in CHCl3 (5 mL) was slowly added to a suspension of 45 (0.6 g, 3.3 mmol) in CHCl3 (13 mL), at 0° C. The reaction mixture was stirred at r.t. for 4 h and, then, a 10% solution of Na2SO3 in water was added to the mixture. […] 4,7-Diethoxy-1,3-benzothiazol-2-amine (66). […] 4-Isobutoxy-7-methoxy-1,3-benzothiazol-2-amine (116). […] Hydrazine hydrate (0.23 mL, 4.77 mmol) and CH3COOH (0.12 mL, 2.1 mmol) were added to a suspension of 56 (0.29 g, 1.59 mmol) in ethylene glycol (8 mL), and the reaction mixture was stirred for 24 h at 125° C. […] 6-Ethyl-2-hydrazino-1,3-benzothiazole (69). […] 6-Ispropyl-2-hydrazino-1,3-benzothiazole (70). […] 2-Hydrazino-4,7-dimethoxy-1,3-benzothiazole (73). […] 2-Hydrazino-5,7-dimethoxy-1,3-benzothiazole (75). […] 2-Hydrazino-4,7-Diethoxy-1,3-benzothiazole (77). […] 2-Hydrazino-5-methyl[1,3]thiazolo[5,4-b]pyridine (100). […] A solution of 67 (0.13 g, 0.65 mmol) in formic acid (5 mL) was refluxed for 10 h. The reaction mixture was then poured into ice/water and the pH was neutralized using a saturated solution of NaHCO3.

[2] = target: T2, TNKS1 (Homo sapiens, UniProt O95271); experiment: Activity assay measuring NAD+ consumption, TNKS1; assay type: biochemical; settings: Table 4
T2 sequence (O95271 1-1327): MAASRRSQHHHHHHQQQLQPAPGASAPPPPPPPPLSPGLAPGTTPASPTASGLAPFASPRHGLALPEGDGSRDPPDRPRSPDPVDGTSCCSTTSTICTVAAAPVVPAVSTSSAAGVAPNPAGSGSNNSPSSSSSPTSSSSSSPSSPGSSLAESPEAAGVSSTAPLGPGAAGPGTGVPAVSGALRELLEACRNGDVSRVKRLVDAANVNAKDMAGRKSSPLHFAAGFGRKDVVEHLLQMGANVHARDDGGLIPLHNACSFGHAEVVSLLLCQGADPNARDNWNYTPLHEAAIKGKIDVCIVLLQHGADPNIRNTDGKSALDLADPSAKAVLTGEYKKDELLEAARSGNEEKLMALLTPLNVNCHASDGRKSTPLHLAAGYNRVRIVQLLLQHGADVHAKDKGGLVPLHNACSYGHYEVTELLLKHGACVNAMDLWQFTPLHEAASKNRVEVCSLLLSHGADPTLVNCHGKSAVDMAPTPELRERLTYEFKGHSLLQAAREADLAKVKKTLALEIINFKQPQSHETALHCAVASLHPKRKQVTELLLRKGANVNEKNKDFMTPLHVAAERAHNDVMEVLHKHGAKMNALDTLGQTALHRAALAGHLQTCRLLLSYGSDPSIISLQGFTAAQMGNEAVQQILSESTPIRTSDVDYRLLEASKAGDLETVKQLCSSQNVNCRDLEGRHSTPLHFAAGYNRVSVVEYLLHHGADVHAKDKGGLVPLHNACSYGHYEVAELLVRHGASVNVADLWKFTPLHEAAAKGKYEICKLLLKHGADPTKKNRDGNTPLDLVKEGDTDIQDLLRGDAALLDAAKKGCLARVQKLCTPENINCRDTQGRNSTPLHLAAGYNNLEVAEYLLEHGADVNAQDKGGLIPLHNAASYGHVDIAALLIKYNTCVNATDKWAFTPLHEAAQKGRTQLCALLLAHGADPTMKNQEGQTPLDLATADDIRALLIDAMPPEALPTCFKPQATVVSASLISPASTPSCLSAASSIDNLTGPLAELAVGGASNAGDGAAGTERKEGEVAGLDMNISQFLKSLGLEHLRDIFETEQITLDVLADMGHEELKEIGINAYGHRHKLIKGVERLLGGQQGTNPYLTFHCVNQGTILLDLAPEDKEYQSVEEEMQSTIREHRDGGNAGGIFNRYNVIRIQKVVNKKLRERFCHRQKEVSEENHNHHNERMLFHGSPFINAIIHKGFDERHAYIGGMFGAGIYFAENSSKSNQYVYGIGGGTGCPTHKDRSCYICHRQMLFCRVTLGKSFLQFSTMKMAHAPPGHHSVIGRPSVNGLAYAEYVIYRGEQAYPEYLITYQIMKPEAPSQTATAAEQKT
Procedure: All starting materials, reagents, and solvents were purchased from common commercial suppliers and were used as such without further purification. […] Organic solutions were dried over anhydrous Na2SO4 and concentrated with rotary evaporator at low pressure. All the reactions were routinely checked by thin-layer chromatography (TLC) on silica gel 60F254 (Merck) and visualized by using UV and iodine. Flash chromatography separations were carried out on Merck silica gel 60 (mesh 230-400) or by using automated Buchi Reveleris X2-UV with column FP Ecoflex Si 12 g. Yields were of purified products and were not optimized. ^1HNMR spectra were recorded at 400 MHz (Bruker Avance DRX-400), while ^13CNMR spectra were recorded at 101 MHz (Bruker Avance DRX-400). Chemical shifts are given in ppm (δ) relative to TMS. […] Mating constant (J) are reported in Hz. The purity of the tested compounds was evaluated by HPLC analysis using Jasco LC-4000 instrument equipped with a UV-Visible Diode Array Jasco-MD4015 (Jasco Corporation, Tokyo, Japan), and XTerra MS C18 column, 5 μm×4.6 mm×150 mm (Waters Corporation, Massachusetts, USA). Chromatograms were analyzed by ChromNAV2.0 Chromatography Data System software. […] The peak retention time (ret. time) is given in minutes. […] 1-Isobutoxy-4-methoxy-2-nitrobenzene (113). Isobutyl alcohol (0.6 mL, 6.43 mmol) was added, under nitrogen atmosphere at 0° C., to a suspension of NaH (0.26 g, 6.43 mmol) in dry DMF. After 15 minutes, 1-fluoro-4-methoxy-2-nitrobenzene 112 (1 g, 5.84 mmol) was also added and the reaction mixture was stirred at 80° C. for 4 h. […] (2-Isobutoxy-5-methoxyphenyl)amine (114). Zn (1.57 g, 24 mmol) and NH4C1 (2.45 g, 40 mmol) were added to a solution of 113 (0.46 g, 2 mmol) in acetone/H2O (50 mL, ratio 5:1). The reaction mixture was stirred at 60° C. for 3 h and, then, it was filtered over celite. […] N-(2,5-diethoxyphenyl)thiourea (55). […] N-(2-isobutoxy-5-methoxyphenyl)thiourea (115). […] A solution of Br2 (0.2 mL, 3.3 mmol) in CHCl3 (5 mL) was slowly added to a suspension of 45 (0.6 g, 3.3 mmol) in CHCl3 (13 mL), at 0° C. […]

T1 sequence (Q9UGN5 whole entry): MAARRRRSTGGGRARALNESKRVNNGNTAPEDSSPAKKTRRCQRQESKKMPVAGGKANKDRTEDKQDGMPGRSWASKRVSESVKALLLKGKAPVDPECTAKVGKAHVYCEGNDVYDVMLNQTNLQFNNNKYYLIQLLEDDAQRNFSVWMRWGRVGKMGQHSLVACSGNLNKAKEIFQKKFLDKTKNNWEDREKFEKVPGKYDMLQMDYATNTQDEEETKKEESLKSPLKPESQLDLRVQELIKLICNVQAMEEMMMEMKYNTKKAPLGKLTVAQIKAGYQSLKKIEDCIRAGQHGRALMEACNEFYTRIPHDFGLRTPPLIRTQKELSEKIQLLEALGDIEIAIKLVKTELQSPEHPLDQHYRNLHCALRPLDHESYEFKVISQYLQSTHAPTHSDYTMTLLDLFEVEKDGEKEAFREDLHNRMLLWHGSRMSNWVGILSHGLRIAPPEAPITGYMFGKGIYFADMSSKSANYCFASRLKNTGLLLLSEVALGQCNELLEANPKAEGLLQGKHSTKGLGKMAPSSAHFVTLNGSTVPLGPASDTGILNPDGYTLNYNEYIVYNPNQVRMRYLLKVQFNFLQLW

| SMILES | IC50 [1] [nM] | PARP2 pIC50 ± SEM [1] | IC50 [2] [nM] | IC50 ([1]; NAD+ consumption assay, > less than 50% inhibition at highest concentration, >> no inhibition) [nM] | IC50 ([1]; NAD+ consumption assay) [nM] |
| --- | --- | --- | --- | --- | --- |
| Oc1ccc2c(c1)sc1nncn12 [Compound 10] | 44 | (7.44 ± 0.12) | 1600 | – | – |
| Cc1ccc2c(c1)sc1nnc(N)n12 [Compound 22, 7-Methyl[1,2,4]triazolo[3,4-b][1,3]benzothiazol-3-amine] | – | – | 2100 | – | – |
| COc1ccc(OC)c2c1sc1nnc(N)n12 [Compound 28, 5,8-Dimethoxy[1,2,4]triazolo[3,4-b][1,3]benzothiazol-3-amine] | – | – | 5400 | 10000 | – |
| Nc1nnc2sc3cc(O)ccc3n12 [Compound 109, 3-Amino[1,2,4]triazolo[3,4-b][1,3]benzothiazol-7-ol] | – | – | – | – | 5 to 10 |
